“And” between values parts separate entries of the source, which are not always exact repeats. Equal entries are not always repeated.
Assays:
[1] = system: Epithelial cell line MDCK; test: Neutral red test of cell viability in epithelial cells of the distal renal tubule; format: cell-based, canine; conditions: 50% reduction of cell viability after 24 hours
Method: To determine the IC-50, the neutral red test was used in epithelial cells of the distal renal tubule. In addition, this test is very helpful for predicting with high accuracy the LD-50 values of newly synthesized compounds.
Epithelial cell line MDCK of the renal distal renal tubule of a canine kidney (ECACC No. 85011435) was incubated from 10,000 cells/well in Alpha MEM Eagle (10% fetal bovine serum) at 37° C. and 5% CO2, 95% atmospheric humidity for 20 hours with various Examples 1B, 3F and 5F. Neutral red was used as an indicator for cell viability and for measuring lyosomal integrity and employed to determine those contrast medium concentrations in which a 50% reduction of cell viability (IC-50) occurred after 24 hours.
Four independent replicates were tested for each concentration of contrast medium. […] The latter is a reference compound in clinical practice and a contrast medium with proven excellent compatibility. The highest compatibility was found for Example 3F with 1170 μmol of I eq/ml.

[2] = Distribution coefficient in 1-butanol and tris-HCl buffer; format: physicochemical; conditions: for Distribution Coefficient of Butanol/Water: 1-butanol and tris-HCl buffer at pH 7.6
Method: The distribution coefficient of Example 3F was determined in comparison to Gadovist, iopromide and iotrolan in 1-butanol and tris-HCl buffer at pH 7.6.

Male Wistar rats = test: CT studies (computer tomography) of rats after intravenous injection; format: in vivo, rat; conditions: i.v.
Method: By way of example, the suitability of the described compound class was examined in Example 1B with the aid of computer tomography (CT) of rats. For the CT studies, a Siemens Somatom CR was available. The 5-second image was prepared with a layer thickness of 2 mm and a tube voltage of 125 kV. Substance 1B was formulated as an aqueous solution at a concentration of 0.17 mol/l (corresponds to 145 mg (1+Gd)/ml.
Male Wistar rats (400 g of body weight) were scanned before (FIG. 1a) and after intravenous injection (FIG. 1) of 1B in a dose of 0.15 mmol/kg (corresponds to 127 mg of (I+Gd)/kg).
This early phase reflects the blood perfusion of the renal cortex.

Wistar rats = test: MRT studies (angiography and organ visualization) of rats after intravenous injection; format: in vivo, rat; conditions: i.v.
Method: The same substance (IB) was examined with the aid of magnetic resonance tomography (MRT) as a contrast medium.
The MRT studies were performed on a 1.5 T device (Siemens Symphonie with 40 mT/m gradients). 400 g Wistar rats were examined with T1-weighted image sequences (angiography TR 2.54 ms, TE 1.12 ms und α=40° or organ visualization TR 54 ms, TE 4.8 ms and α=40°). The angiography (MRA, FIG. 3) was from 0–60 seconds p.i., and the organ visualization (FIGS. 4a and b) was prepared 15 minutes after the injection. Substance 1B was formulated as an aqueous solution at a concentration of 0.17 mol/l (corresponds to 0.5 mol of Gd/l) and was intravenously injected in a dose of 0.03 mmol of substance or 0.1 mmol of Gd/kg.

Compound: O=C([O-])CN1CCN(CC(=O)[O-])CCN([C@H](CO)[C@H](O)CO)CCN(CC(=O)[O-])CC1.[Gd+3] (racemic) [Gadobutrol, reference compound]
- IC50 [1]: 153 μmol of I eq/ml
- Distribution Coefficient of Butanol/Water [2]: 0.006 ± 0.0007

Compound: CC(C(=O)NCC(=O)NCCNC(=O)c1c(I)c(C(=O)NCCNC(=O)CNC(=O)C(C)N2CCN(CC(=O)[O-])CCN(CC(=O)[O-])CCN(CC(=O)[O-])CC2)c(I)c(C(=O)NCCNC(=O)CNC(=O)C(C)N2CCN(CC(=O)[O-])CCN(CC(=O)[O-])CCN(CC(=O)[O-])CC2)c1I)N1CCN(CC(=O)[O-])CCN(CC(=O)[O-])CCN(CC(=O)[O-])CC1.[Gd+3].[Gd+3].[Gd+3] (stereo not drawn) [Example 1B, 1,3,5-Triiodotrimesic acid-N,N,N-tris-(3,6-diaza-4,7-dioxo-8-methyloctane-1,8-diyl-{10-[1,4,7-tris-(carboxylatomethyl)-1,4,7,10-tetraazacyclododecanyl, Gd-complex]})amide]
- CT contrasting of vessels and renal cortex (early phase) (Male Wistar rats; 0.15 mmol/kg (127 mg of (I+Gd)/kg), 125 kV): very clear contrasting of the blood-conveying vessels (A) and the renal cortex (N)
- renal excretion (contrasting of renal pelvis in CT) (Male Wistar rats; 0.15 mmol/kg, 15 minutes later): quick renal excretion
- IC50 [1]: 930 μmol of I eq/ml
- MRA visualization of arteries and heart (Wistar rats; 0.03 mmol of substance or 0.1 mmol of Gd/kg, 1.5 T, 0-60 seconds p.i.): excellent ability to visualize the large arteries (aorta, femoral artery) as well as the heart
- MRT whole-body image, organ contrasting (Wistar rats; 0.1 mmol of Gd/kg, 1.5 T, 15 minutes after the injection): clear contrasting of liver (L) as well as kidneys
- renal elimination (ureter visualized in MRT) (Wistar rats; 0.1 mmol of Gd/kg, 15 minutes after the injection): quick renal elimination

Compound: O=C([O-])CN1CCN(CC(=O)[O-])CCN(CC(=O)NCCNC(=O)c2c(I)c(C(=O)NCCNC(=O)CN3CCN(CC(=O)[O-])CCN(CC(=O)[O-])CCN(CC(=O)[O-])CC3)c(I)c(C(=O)NCCNC(=O)CN3CCN(CC(=O)[O-])CCN(CC(=O)[O-])CCN(CC(=O)[O-])CC3)c2I)CCN(CC(=O)[O-])CC1.[Gd+3].[Gd+3].[Gd+3] [Example 3F, 2,4,6-Triiodotrimesic acid-N,N,N-tris-(3-aza-4-oxopentane-1,5-diyl-{10-[1,4,7-tris-(carboxylatomethyl)-1,4,7,10-tetrazacyclododecanyl, Gdcomplex]})amide]
- IC50 [1]: 1170 μmol of I eq/ml
- Distribution Coefficient of Butanol/Water [2]: 0.0002 and 0.0002 ± 0.0001

Compound: O=C([O-])CN1CCN(CC(=O)[O-])CCN(CC(O)CNC(=O)c2c(I)c(C(=O)NCC(O)CN3CCN(CC(=O)[O-])CCN(CC(=O)[O-])CCN(CC(=O)[O-])CC3)c(I)c(C(=O)NCC(O)CN3CCN(CC(=O)[O-])CCN(CC(=O)[O-])CCN(CC(=O)[O-])CC3)c2I)CCN(CC(=O)[O-])CC1.[Gd+3].[Gd+3].[Gd+3] (stereo not drawn) [Example 5G, 1,3.5-Triiodotrimesic acid-N,N,N-tris-(2-hydroxypropane-1,3-diyl-{10-[1,4,7-tris-(carboxylatomethyl)-1,4,7,10-tetraazacyclododecanyl]}, Gdcomplex)amide]
- IC50 [1]: 788 μmol of I eq/ml

Compound: COCC(=O)Nc1c(I)c(C(=O)NCC(O)CO)c(I)c(C(=O)N(C)CC(O)CO)c1I (stereo not drawn) [Iopromide]
- distribution coefficient of butanol/water relative to Example 3F ([2]; 0.051 vs. 0.0002): ≤ 255 ×
- Distribution Coefficient of Butanol/Water [2]: 0.051 ± 0.003
- Distribution Coefficient of Butanol/Water ([2]; listed as lopromide): 0.051

Compound: CN(C(=O)CC(=O)N(C)c1c(I)c(C(=O)NC(CO)C(O)CO)c(I)c(C(=O)NC(CO)C(O)CO)c1I)c1c(I)c(C(=O)NC(CO)C(O)CO)c(I)c(C(=O)NC(CO)C(O)CO)c1I (stereo not drawn) [Iotrolan]
- Distribution Coefficient of Butanol/Water [2]: 0.0065 ± 0.002

Source: patent US7208140B2, “Trimeric macrocyclic substituted benzene derivatives” (Schering Aktiengesellschaft, priority 2003, dated 2007)
